Earlier results, collected in article PMC8342319, “Predicting blood-to-plasma concentration ratios of drugs from chemical structures and volumes of distribution in humans” (Molecular Diversity, 2021).
Where two headings read alike, the source gives them in different places.

Tests used:
[1] = human, intravenous; median if multiple values were reported; ref numbers in Table S1; cited from earlier work
[2] = cited from earlier work
[3] = human, intravenous, median if multiple values were reported, ref numbers in Table S1

SMILES | in vivo Vd_(L/kg)_Human [1] [L/kg] | in vivo CL_(L/hr/kg)_Human [2, 3] [L/h/kg] | other results
Oc1ncnc2[nH]ncc12 [Allopurinol] | 0.580 | – | –
Cc1nnc2n1-c1ccc(Cl)cc1C(c1ccccc1)=NC2 [Alprazolam] | 0.800 | 0.044 | –
C=CCc1ccccc1OCC(O)CNC(C)C (stereo not shown) [Alprenolol] | 3.200 | 0.900 | –
CCCCc1oc2ccccc2c1C(=O)c1cc(I)c(OCCN(CC)CC)c(I)c1 [Amiodarone] | – | 0.114 | –
CN(C)CCC=C1c2ccccc2CCc2ccccc21 [Amitriptyline] | 8.700 | 0.593 | –
CC1(C)S[C@@H]2[C@H](NC(=O)[C@H](N)c3ccc(O)cc3)C(=O)N2[C@H]1C(=O)O [Amoxicillin] | 0.250 | 0.198 | –
C[C@@H](O[C@H]1OCCN(Cc2n[nH]c(=O)[nH]2)[C@H]1c1ccc(F)cc1)c1cc(C(F)(F)F)cc(C(F)(F)F)c1 [Aprepitant] | 0.940 | – | –
CC(C)NCC(O)COc1ccc(CC(N)=O)cc1 (stereo not shown) [Atenolol] | – | 0.150 | –
C[C@H]1C[C@H]2[C@@H]3CCC4=CC(=O)C=C[C@]4(C)[C@@]3(F)[C@@H](O)C[C@]2(C)[C@@]1(O)C(=O)CO [Betamethasone] | – | 0.168 | –
CCCC1O[C@@H]2C[C@H]3[C@@H]4CCC5=CC(=O)C=C[C@]5(C)[C@H]4[C@@H](O)C[C@]3(C)[C@]2(C(=O)CO)O1 (stereo partly shown) [Budesonide] | 3.900 | 1.200 | –
COc1ccccc1OCCNCC(O)COc1cccc2[nH]c3ccccc3c12 (stereo not shown) [Carvedilol] | 1.300 | 0.495 | –
C=CC1=C(C(=O)O)N2C(=O)[C@@H](NC(=O)/C(=N\OCC(=O)O)c3csc(N)n3)[C@H]2SC1 [Cefixime] | 0.240 | 0.060 | –
CCC[C@@H]1C[C@@H](C(=O)N[C@@H]([C@H]2O[C@H](SC)[C@H](O)[C@@H](O)[C@H]2O)[C@H](C)Cl)N(C)C1 [Clindamycin] | – | 0.270 | –
C[C@@H]1C[C@H]2[C@@H]3CCC4=CC(=O)C=C[C@]4(C)[C@@]3(F)[C@@H](O)C[C@]2(C)[C@@]1(O)C(=O)CO [Dexamethasone] | – | 0.198 | –
CN1C(=O)CN=C(c2ccccc2)c2cc(Cl)ccc21 [Diazepam] | – | 0.023 | –
CCOC(=O)c1ncn2c1CN(C)C(=O)c1cc(F)ccc1-2 [Flumazenil] | – | 0.960 | –
NS(=O)(=O)c1cc(C(=O)O)c(NCc2ccco2)cc1Cl [Furosemide] | – | 0.096 | –
CN(C)CCCN1c2ccccc2CCc2ccccc21 [Imipramine] | 12.000 | – | –
CCN(CC)CC(=O)Nc1c(C)cccc1C [Lidocaine] | – | 0.756 | –
CN1CC[C@]23c4c5ccc(O)c4O[C@H]2[C@@H](O)C=C[C@H]3[C@H]1C5 [Morphine] | – | 1.500 | –
C=CCN1CC[C@]23c4c5ccc(O)c4O[C@H]2C(=O)CC[C@@]3(O)[C@H]1C5 [Naloxone] | 1.700 | – | –
COc1ccc2cc([C@H](C)C(=O)O)ccc2c1 [Naproxen] | – | 0.004 | –
O=C1Nc2ccc(Cl)cc2C(c2ccccc2)=NC1O (stereo not shown) [Oxazepam] | – | – | in vivo CL_(L/hr/kg)_Human ([2]; in vivo, iv): 0.066 L/h/kg
Cc1cc(NS(=O)(=O)c2ccc(N)cc2)no1 [Sulfamethoxazole] | – | – | in vivo CL_(L/hr/kg)_Human ([2]; human, intravenous, median if multiple values reported, Reference of Table S1): 0.020 L/h/kg
